Data from patent US20060111341A1, “Use of galanthamine and the derivatives thereof in the production of medicaments” (priority 2003, published 2006).
Read-outs that look alike come from different tables or passages of the source.

Key:
[1] = tested on: medicament-induced delirium; details: one patient, WO 00/32185 A; cited from earlier work
Butyrylcholinesterase = Butyrylcholinesterase (Homo sapiens, UniProt P06276); test: biochemical
Acetylcholinesterase [2] = biological target: T1, Acetylcholinesterase (Homo sapiens, UniProt P22303); test: biochemical
T1 sequence (P22303 32-614): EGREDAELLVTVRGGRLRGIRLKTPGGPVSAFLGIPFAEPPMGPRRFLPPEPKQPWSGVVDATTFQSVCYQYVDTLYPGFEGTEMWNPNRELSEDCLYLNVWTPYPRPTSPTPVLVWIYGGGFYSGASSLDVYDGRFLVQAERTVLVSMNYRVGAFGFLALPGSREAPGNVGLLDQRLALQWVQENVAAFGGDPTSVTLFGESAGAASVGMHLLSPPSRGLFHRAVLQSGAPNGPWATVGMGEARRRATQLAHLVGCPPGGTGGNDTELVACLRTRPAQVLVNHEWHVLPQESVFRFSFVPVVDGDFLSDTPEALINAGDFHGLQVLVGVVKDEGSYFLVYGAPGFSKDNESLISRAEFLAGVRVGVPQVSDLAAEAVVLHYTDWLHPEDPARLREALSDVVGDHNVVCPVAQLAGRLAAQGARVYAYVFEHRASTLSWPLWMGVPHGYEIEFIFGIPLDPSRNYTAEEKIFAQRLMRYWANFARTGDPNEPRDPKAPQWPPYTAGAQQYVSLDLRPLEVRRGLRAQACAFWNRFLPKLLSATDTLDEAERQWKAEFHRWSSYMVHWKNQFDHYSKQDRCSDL

post-operative delirium = test: Prospective clinical study for the prevention of post-operative delirium (Confusion Assessment Method); format: in vivo, patients
Excerpt: In order to be able to test the effect of the pharmaceutical forms of the invention on patients, a prospective study was accomplished for the prevention of post-operative delirium at five Austrian orthopedic hospitals (two in Vienna, and one each in Linz, Graz and Krems) and all together 229 patients, who underwent hip replacement and/or combined planned surgical intervention for implantation were part of the study.
Hip/Knee endoprosthesis. The patients of the group were given in the evening following the surgical intervention (day 0) 8 mg galanthamine HCl, then on the days 1 to 4 in each case 4 mg in the morning and at noon and 8 mg in the evening, i.e., 16 mg t.i.d. to the fifth day. […], the dose was reduced to 8 mg b.i.d., starting from that day until the 6th day when no more treatment took place.
For the determination of the effectiveness with the help of the “Confusion Assessment Method” (Lit.14) 155 patients could be consulted. In the group of placebos 7 patients (8, 5%) developed an post-operative delirium, in the galanthamine group only one patient (1, 4%) developed post-operative delirium, which corresponds to a statistically significant difference (p=0, 044).

Acetylcholinesterase [3] = biological target: T1, Acetylcholinesterase

Butyrylcholinesterase, sequence (P06276 29-602): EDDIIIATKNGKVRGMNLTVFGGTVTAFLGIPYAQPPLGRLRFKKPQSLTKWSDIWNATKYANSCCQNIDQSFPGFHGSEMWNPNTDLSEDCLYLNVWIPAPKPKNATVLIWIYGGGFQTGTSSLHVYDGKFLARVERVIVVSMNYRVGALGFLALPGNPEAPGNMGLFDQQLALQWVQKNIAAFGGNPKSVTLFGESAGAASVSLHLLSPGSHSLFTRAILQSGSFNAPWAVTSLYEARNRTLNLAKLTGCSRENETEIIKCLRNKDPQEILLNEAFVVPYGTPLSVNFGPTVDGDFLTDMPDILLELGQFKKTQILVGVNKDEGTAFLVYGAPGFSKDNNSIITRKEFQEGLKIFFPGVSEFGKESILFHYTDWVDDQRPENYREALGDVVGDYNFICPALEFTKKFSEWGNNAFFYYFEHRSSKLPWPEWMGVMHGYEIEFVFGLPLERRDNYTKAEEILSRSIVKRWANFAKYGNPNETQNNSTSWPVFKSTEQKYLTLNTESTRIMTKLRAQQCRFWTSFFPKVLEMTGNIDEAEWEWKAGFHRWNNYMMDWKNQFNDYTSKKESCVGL

SMILES	IC50 (Butyrylcholinesterase)	IC50 (Acetylcholinesterase [2])	also measured
CCN(C)C(=O)Oc1cccc([C@H](C)N(C)C)c1 [rivastigmine]	–	–	treatment of delirium after lithium intoxication [1]: successfully treated
COc1ccc2c3c1OC1C[C@@H](O)C=CC31CCN(c1ncccn1)C2 (mixture of isomers) [Nr 85]	30 µM	38 µM	–
COc1ccc2c3c1O[C@@H]1C[C@H](O)C=C[C@]31CC[N+](C)(CCN1CCOCC1)C2 (some centres unmarked) [Nr 12]	13 µM	57 µM	–
COc1ccc2c3c1OC1C[C@@H](O)C=CC31CCN(C(=O)NC(C)(C)C)C2 (mixture of isomers) [Nr 82]	> 100 µM	4.8 µM	–
COc1cc(C)c2c3c1OC1C[C@@H](O)C=CC31CC[N+](C)(C)C2 (mixture of isomers) [Nr 107]	14 µM	> 100 µM	–
COc1cc(C)c2c3c1O[C@H]1C[C@H](O)C=C[C@@]31CCN(CCCN1CCCCC1)C2 [Nr 138]	70 µM	> 100 µM	–
COC(=O)/C=C(\C(=O)OC)N1CCC23C=C[C@H](O)CC2Oc2c(OC)ccc(c23)C1 (mixture of isomers) [Nr 108]	80 µM	140 µM	–
COc1ccc2c3c1O[C@@H]1C[C@H](O)C=C[C@]31CCN(C(=O)NC(C)C)C2 [Nr 126]	90 µM	8 µM	–
CCCN1CC[C@@]23C=C[C@H](O)C[C@@H]2Oc2c(OC)ccc(c23)C1 [Nr 155]	1.5 µM	0.3 µM	–
CNC(=S)N1CCC23C=C[C@H](O)CC2Oc2c(OC)cc(Br)c(c23)C1 (mixture of isomers) [Nr 71]	20 µM	31 µM	–
COc1ccc2c3c1O[C@H]1C[C@@H](O)C=C[C@@]31CCN(C)C2 [galanthamine]	–	–	patients who developed post-operative delirium (number) (post-operative delirium; hip/knee endoprosthesis patients, oral galanthamine day 0 to 5, Confusion Assessment Method, 155 patients evaluated, placebo 7 patients): one; improvement of the symptoms of acute POD (post-operative delirium; oral administration, patients with limited cognitive ability with acute POD): unexpected and large improvement of the symptoms; observed side effects of galanthamine administration (post-operative delirium; oral administration, post-operative patients): very small; patients who developed post-operative delirium (percent) (post-operative delirium; po, 0 h): 1, 4%
C#CC[N+]1(C)CCC23C=C[C@H](O)CC2Oc2c(OC)cc(C)c(c23)C1 (mixture of isomers) [Nr 68]	2.5 µM	78 µM	–
COc1cc(Br)c2c(c1O)C13C=C[C@@H](O)CC1N(CC3)C2 (mixture of isomers) [Nr 14]	18 µM	> 100 µM	–
COc1ccc2c3c1OC1C[C@@H](O)C=CC31CCC(N)C2 (mixture of isomers) [Nr 140]	> 100 µM	5.3 µM	–
C#CCN1CCC23C=C[C@H](O)CC2Oc2c(OC)cc(Br)c(c23)C1 (mixture of isomers) [Nr 23]	10 µM	63 µM	–
CCOC(=O)NN(CN1CC[C@@]23C=C[C@H](O)C[C@@H]2Oc2c(OC)ccc(c23)C1)C(=O)OCC [Nr 159]	> 100 µM	3 µM	–
COc1cc(Br)c2c3c1OC1C[C@@H](O)C=CC31CCN(CCC#N)C2 (mixture of isomers) [Nr 72]	43 µM	> 100 µM	–
COc1ccc2c3c1O[C@H]1C[C@@H](O)C=C[C@@]31CCN(C(=O)NC(C)C)C2 [Nr 114]	10 µM	2.6 µM	–
COc1ccc2c3c1O[C@H]1C[C@@H](O)C=C[C@@]31CC[N+](C)(Cc1ccc(Br)cc1)C2 (some centres unmarked) [Nr 58]	0.6 µM	0.2 µM	–

SMILES	IC50 (Butyrylcholinesterase)	IC50 (Acetylcholinesterase [2])	also measured
COc1ccc2c3c1O[C@H]1C[C@@H](O)C=C[C@@]31CCN(CCCN1CCCCC1)C2 [Nr 128]	1.5 µM	0.3 µM	–
COc1ccc2c3c1OC1C/C(=N/NC(N)=O)C=CC31CCN(C)C2 (racemic) [Nr 32]	20 µM	> 100 µM	–
COc1cc2c(cc1OC)C(=O)C(CCCCN1CC[C@@]34C=C[C@H](O)C[C@@H]3Oc3c(OC)ccc(c34)C1)C2 (some centres unmarked) [Nr 167]	–	–	IC50 (Acetylcholinesterase [3]): 0.02 µM
COc1cc(Br)c2c3c1OC1C[C@@H](O)C=CC31CCN(Cc1ccccc1)C2 (mixture of isomers) [Nr 38]	0.24 µM	> 100 µM	–
COc1ccc2c3c1O[C@H]1C[C@H](N)C=C[C@@]31CCN(C)C2 [Nr 84]	6 µM	40 µM	–
COc1ccc2c3c1O[C@H]1C[C@@H](O)C=C[C@@]31CCN(CN(NC(=O)OC(C)(C)C)C(=O)OC(C)(C)C)C2 [Nr 160]	20 µM	3.6 µM	–
COc1cc(C)c2c3c1OC1C[C@@H](O)C=CC31CCN(C)C2 (mixture of isomers) [Nr 63]	17 µM	> 100 µM	–
COc1ccc2c3c1O[C@H]1C[C@@H](O)C=C[C@@]31CCN(C(=O)Nc1cccc3ccccc13)C2 [Nr 267]	> 100 µM	70 µM	–
COc1ccc2c3c1OC1C[C@@H](O)C=CC31CCN(CCC(=O)NC(C)(C)C)C2 (mixture of isomers) [Nr 101]	26 µM	45 µM	–
COc1cc(Br)c2c3c1OC1C[C@@H](O)C=CC31CCN(CCO)C2 (mixture of isomers) [Nr 33]	6.4 µM	34 µM	–
COc1ccc2c3c1O[C@H]1C[C@@H](O)C=C[C@@]31CCN(C(=O)Nc1ccccc1C(F)(F)F)C2 [Nr 111]	> 100 µM	30 µM	–
COc1ccc2c3c1OC1C[C@@H](O)C=CC31CCN(C(=O)N[C@H](C)c1ccccc1)C2 (mixture of isomers) [Nr 112]	> 100 µM	30 µM	–
CCOC(=O)C(=O)N1CCC23C=C[C@H](O)CC2Oc2c(OC)cc(Br)c(c23)C1 (mixture of isomers) [Nr 20]	11 µM	32 µM	–
COc1ccc2c3c1OC1C[C@@H](O)C=CC31CCN(C=C(C#N)C#N)C2 (mixture of isomers) [Nr 80]	> 100 µM	28.5 µM	–
COc1ccc2c3c1OC1C/C(=N/N(C)C)C=CC31CCN(C)C2 (racemic) [Nr 24]	60 µM	80 µM	–
COc1cc(Br)c2c3c1OC1C[C@@H](O)C=CC31CCN(CC#N)C2 (mixture of isomers) [Nr 19]	70 µM	> 100 µM	–
COc1ccc2c3c1O[C@H]1C[C@@H](OC(=S)Nc4ccccc4)C=C[C@@]31CCN(C)C2 [Nr 179]	30 µM	51 µM	–
COc1cc(Br)c2c3c1OC1C[C@@H](O)C=CC31CCN(C(=O)NC(C)C)C2 (mixture of isomers) [Nr 70]	25 µM	> 100 µM	–
